Measured values as given in PubChem BioAssay AID1845212 (Molecular Pharmacology Branch, DTP, NCI, 2023).

Tested on: NCI-H719 tumor spheroids, viability
Test: Anticancer human tumor NCI-H719 cell line growth inhibition;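 further: spheroids exposed to compounds for seven days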;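 on viability, T/C: percent viability relative to DMSO vehicle control as 100%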
Conditions: spheroids with HUVEC and MSC; for IC50: curve of first compound; for viability, T/C: stronger effect = lower value
Summary of the method: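 Complex spheroids of malignant cells with endothelial cells and mesenchymal stem cells; agents alone or combined, from near clinical Cmax (or 10 microM if unknown) down in half-log steps, 0.25% DMSO final.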

Cc1sc2c(c1C)C(c1ccc(Cl)cc1)=NC(CC(=O)Nc1ccc(O)cc1)c1nnc(C)n1-2 (stereo not given) + CC[C@@]1(O)C(=O)OCc2c1cc1n(c2=O)Cc2cc3c(CN(C)C)c(O)ccc3nc2-1
IC50 (second compound 0.003 µM): < 9.49 nM | IC50 (second compound 0.00949 µM): < 9.49 nM | IC50 (second compound 0.03 µM): < 9.49 nM | IC50 (second compound 0.0949 µM): < 9.49 nM | IC50 (second compound 0.3 µM): < 9.49 nM | viability, T/C (second compound 0.003 µM, first compound 0.00949 µM): 42.6% | viability, T/C (second compound 0.003 µM, first compound 0.03 µM): 31.5% | viability, T/C (second compound 0.003 µM, first compound 0.0949 µM): 9.86% | viability, T/C (second compound 0.003 µM, first compound 0.3 µM): 4.37% | viability, T/C (second compound 0.003 µM, first compound 0.949 µM): 2.57% | viability, T/C (second compound 0.003 µM, first compound 3 µM): 1.57% | viability, T/C (second compound 0.00949 µM, first compound 0.00949 µM): 5.64% | viability, T/C (second compound 0.00949 µM, first compound 0.03 µM): 5.14% | viability, T/C (second compound 0.00949 µM, first compound 0.0949 µM): 5% | viability, T/C (second compound 0.00949 µM, first compound 0.3 µM): 4.27% | viability, T/C (second compound 0.00949 µM, first compound 0.949 µM): 2.51% | viability, T/C (second compound 0.00949 µM, first compound 3 µM): 2.02% | viability, T/C (second compound 0.03 µM, first compound 0.00949 µM): 4.76% | viability, T/C (second compound 0.03 µM, first compound 0.03 µM): 4.99% | viability, T/C (second compound 0.03 µM, first compound 0.0949 µM): 4.72% | viability, T/C (second compound 0.03 µM, first compound 0.3 µM): 3.7% | viability, T/C (second compound 0.03 µM, first compound 0.949 µM): 2.76% | viability, T/C (second compound 0.03 µM, first compound 3 µM): 1.87% | viability, T/C (second compound 0.0949 µM, first compound 0.00949 µM): 4.97% | viability, T/C (second compound 0.0949 µM, first compound 0.03 µM): 4.42% | viability, T/C (second compound 0.0949 µM, first compound 0.0949 µM): 4.02% | viability, T/C (second compound 0.0949 µM, first compound 0.3 µM): 3.47% | viability, T/C (second compound 0.0949 µM, first compound 0.949 µM): 2.28% | viability, T/C (second compound 0.0949 µM, first compound 3 µM): 1.46% | viability, T/C (second compound 0.3 µM, first compound 0.00949 µM): 5.22% | viability, T/C (second compound 0.3 µM, first compound 0.03 µM): 4.7% | viability, T/C (second compound 0.3 µM, first compound 0.0949 µM): 3.68% | viability, T/C (second compound 0.3 µM, first compound 0.3 µM): 2.55% | viability, T/C (second compound 0.3 µM, first compound 0.949 µM): 1.67% | viability, T/C (second compound 0.3 µM, first compound 3 µM): 0.66%
